Reference: patent publication US9585871B2, “Method for treating and curing leishmaniosis using fexinidazole” (Merial Limited, priority 2013, dated 2017)

Test: Reproductive toxicity study, rats
Assay type: in vivo
Details: oral 200 mg/kg for 10 days
Source text: Toxicology summary. In mice and rats, the maximum fexinidazole (FEX) dose after oral administration is 10 g/kg of body weight. […] Finally, as regards PK, labeled FEX and its metabolites were excreted within 3 days in the feces (52-58%) and urine (36-40%).

With `CSc1ccc(OCc2ncc([N+](=O)[O-])n2C)cc1` [Fexinidazole, fexinidazole] the embryotoxic effects was “no embryotoxic effects”.
